Source: US20220354834A1, “METHODS AND MATERIALS FOR TREATING NEUROTOXICITY” (Cavion, Inc., priority 2019, published 2022)

Key:
[1] = tested on: sciatic nerves (BTZ-induced CIPN); assay: CIPN-reversal study: sciatic nerve conduction velocity; type: in vivo, Wistar rat
Method: (§1) Wistar female rats (n=52) (Envigo, Correzzano, Italy) at 10-11 weeks of age were utilized. The study was divided into 2 phases of 4 weeks each. […] Body weight was measured periodically during phase 1 from baseline (day 1) to day 28. At baseline and conclusion of phase 1 (day 28), nerve conduction velocity (NCV) was performed on caudal and sciatic nerves and Dynamic Aesthesiometer Test (DAT) measured mechanical threshold (MT) of the hind paw. […] Body weight was measured periodically from baseline (day 28) to day 56 (termination). NCV and MT were measured in all 4 groups at baseline and on day 35 and 56. […] At termination, sciatic nerves were obtained for β-tubulin polymerization and skin samples were procured for intraepidermal nerve fiber (IENF) density and histopathology.
(§2) NCV (meters/second) was obtained from caudal and sciatic nerves with an electromyography tool (Myto 2, ABN Neuro, Firenze, Italy). Caudal NCV was measured by placement of recording needle electrodes distally in the tail with stimulating needle electrodes 5 cm and 10 cm proximal to recording point. Peak latencies of potentials recorded at the 2 sites after nerve stimulation were determined and NCV was calculated. Sciatic NCV was determined by placement of needle recording electrodes near ankle bone and stimulating electrodes close to thigh. Peak latencies were recorded similar to caudal nerve and NCV was calculated. NCV was performed under standard conditions in a temperature-controlled facility (22±2° C.) and rats were under isoflurane anesthesia with monitoring of vital signs.

[2] = CIPN-reversal study: body weight, tolerability, mortality; type: in vivo; settings: rat, in vivo
Method: Rats were housed 2-3 per cage under similar environmental conditions as nude mice in the interference study.
as §1

[3] = tested on: β-tubulin; assay: β-tubulin polymerization assay in sciatic nerve; type: in vivo, Wistar rat; settings: week 8
Method: as §1
(§3) At day 56, animals were euthanized by CO2 inhalation and tissue samples were procured from 4 rats per group. Right sciatic nerve was frozen in liquid nitrogen for β-tubulin polymerization assay and plantar glabrous skin samples were collected for IENF density.
Protein extracts from sciatic nerves were processed similar to the proteasome assay except for lysis buffer that contained freshly added protease and […] (10 mM sodium orthovanadate, 4 mM phenylmethylsulfonyl fluoride, 1% aprotinin and 20 mM sodium pyrophosphate). Protein extracts were centrifuged (14000 rpm for 10 minutes at 4° C.) to separate soluble (S) free tubulin fractions from polymerized (P) fractions. Supernatants were collected and pellets of polymerized tubulin were resuspended by sonication for 20 seconds in a volume of lysis buffer supplemented with 0.5% sodium deoxycholate (equivalent to S fraction). Protein aliquots (10 μg) were placed onto 13% SDS-PAGE and, after electrophoresis, were transferred to nitrocellulose filters. Immunoblotting analysis was performed using mouse anti-β-tubulin antibody. After incubation with primary antibody, membrane was washed and incubated with horseradish peroxidase conjugated to […] (Perkin Elmer Italia SPA, Monza, Italy). The ECL chemiluminescence system (Amersham GE Healthcare Europe GmbH, Milano, Italy) was used for detection. Band intensity was quantified with Gel Logic 100 Image System (Eastman Kodak, Rochester, N.Y., USA). Final mean values were obtained from triplicate experiments and data were expressed as percentage of P/P+S in treated rats compared to controls.

[4] = tested on: intraepidermal nerve fibers (BTZ-induced CIPN); assay: IENF density and histopathology of plantar glabrous skin; type: in vivo, Wistar rat
Method: as §1, §3
Plantar glabrous skin samples (5 mm) from hind paws were fixed in 2% PLP (paraformaldehyde-lysine-sodium periodate) for 24 hours at 4° C. and cryoprotected overnight. Samples were serially cut with a cryostat to yield 20 μm sections. Three sections from each footpad were randomly selected and immunostained with rabbit polyclonal anti-protein gene product 9.5 (PGP 9.5; GeneTex, Irvine, Calif., USA) in combination with biotinylated anti-rabbit IgG and Vector SG substrate kit peroxidase (Vector Laboratories, Burlingame, Calif.) using a free-floating protocol. A blinded observer counted total number of immune-positive IENF in each section under light microscopy at high magnification with a microscope video camera. Individual fibers were counted that crossed dermal-epidermal interface. Secondary branches within epidermis were excluded. Length of epidermis was measured to generate linear density of IENF/millimeter as described elsewhere (Canta et al., 2016 Neurobiol Aging 45:136-148).

[5] = tested on: caudal nerves (BTZ-induced CIPN); assay: CIPN-reversal study: caudal nerve conduction velocity; type: in vivo, Wistar rat
Method: as §1, §2

[6] = tested on: RPMI-8226 human myeloma xenografts; assay: In vivo BTZ and combination (BTZ and CX-8998) anti-tumor (interference) study, tumor volume; design: species or system athymic nude mouse
Excerpt: Care and husbandry of mice complied with USDA (U.S. Department of Agriculture) Animal Welfare Act and START IACUC (Institutional Animal Care and Use Committee) regulations. The protocol was reviewed and approved by START IACUC. Mice were individually housed in Sealsafe® Plus ventilated cages (Techniplast, West Chester, Pa., USA) and fed with Teklad 2919 (Envigo, Somerset, N.J., USA), irradiated, 19% protein, 9% fat and 4% fiber mouse chow. Mice were maintained under controlled environmental conditions (22+/−2° C. temperature, 55+/−10% relative humidity and 12-hour light/dark cycle (7 a.m.-7 p.m.).
South Texas Accelerated Research Therapeutics (START) (San Antonio, Tex., USA) conducted this study. […] The 30 mg/kg dose was tolerated in preclinical safety studies and anticipated to result in exposures in excess of the therapeutic range for 28 days. Body weight, TV and animal observations were collected twice per week to day 18 (termination) for vehicle control mice and twice per week to day 28 (termination) for each of the other 3 groups. Mean±SD body weight and TV were analyzed with Kruskal-Wallis and Dunn multiple comparison test at day 18 and with Mann Whitney test at day 28 with statistical significance at p<0.05.

With CC(C)C[C@H](NC(=O)[C@H](Cc1ccccc1)NC(=O)c1cnccn1)B(O)O [BTZ, bortezomib, reference compound] the “sciatic NCV” value ([1]; BTZ vs control at week 5) was “numerically less than control but the difference was not statistically significant”, the “sciatic NCV” value ([1]; BTZ vs control at weeks 4 and 8 (p<0.01, p<0.05)) was “significantly reduced” and the “NCV OF SCIATIC NERVE (8 weeks), Difference in rank sum (Dunn's Multiple Comparison Test)” value ([1]; CTRL vs BTZ, P < 0.05 *) was 22.10. For the same compound, the “NCV OF SCIATIC NERVE (5 weeks), Difference in rank sum (Dunn's Multiple Comparison Test)” value ([1]; CTRL vs BTZ, P > 0.05 ns) was 2.250, the body weight change [2] was “not significantly different” and the tolerability [2] was “well tolerated”. For the same compound, the “TUBULIN POLYMERIZATION, Difference in rank sum (Dunn's Multiple Comparison Test)” value ([3]; CTRL vs BTZ, P < 0.05 *) was −14.74, the “β-tubulin polymerization (%)” value ([3]; BTZ alone vs control, p<0.05) was “significantly increased” and the “IENF density (number of fibers per millimeter)” value ([4]; BTZ alone vs control, p<0.001) was “significantly decreased”. For the same compound, the “IENF DENSITY, Difference in rank sum (Dunn's Multiple Comparison Test)” value ([4]; CTRL vs BTZ, week 8, P < 0.001 ***) was 28.99, the “caudal NCV” value ([5]; BTZ vs control at weeks 4, 5 and 8 (p<0.01, p<0.05, p<0.001)) was “significantly reduced” and the “NCV OF CAUDAL NERVE (8 weeks), Difference in rank sum (Dunn's Multiple Comparison Test)” value ([5]; CTRL vs BTZ, P < 0.001 ***) was 37.00. The “NCV OF CAUDAL NERVE (5 weeks), Difference in rank sum (Dunn's Multiple Comparison Test)” value ([5]; CTRL vs BTZ, P < 0.05 *) was 15.75, the “TUMOR GROWTH DAY 18, Difference in rank sum (Dunn's Multiple Comparison Test)” value ([6]; Vehicle Control vs BTZ, P < 0.001 ***) was 13.13 and the “tumor volume (TV)” value ([6]; day 18, BTZ alone 1 mg/kg vs vehicle control, p<0.001) was “significantly reduced TV”. The “tumor volume (TV) trend” value ([6]; day 18 through day 28, BTZ alone) was “tended to increase”.
